Experimental data taken from patent EP0936918B1, “COMBINATION THERAPY FOR TREATMENT OF ARTHRITIC DISEASES” (BRITISH BIOTECH PHARMACEUTICALS LIMITED, priority 1996, dated 1998).

What was measured:
[1] = test system: adjuvant-induced arthritis; experiment: Rat adjuvant-induced arthritis model; format: in vivo, male Lewis rat
Protocol: Mean of 10 readings was recorded.
Drugs were formulated fresh for each administration.

[2] = Ex vivo bioassay of blood concentration after oral administration (fibroblast collagenase / 14C collagen read-out); set-up: species or system male Lewis rats; details: 10mg/kg oral, suspension in PBS/Tween, with versus without CyA (0.3mg/kg); 0.5 to 24 hrs, n=6
Protocol: Compound 1(10mg/kg)±CyA (0.3mg/kg) [in PBS/0.01% Tween 80™] was administered to healthy male Lewis rats (as above). Blood samples (0.5ml into a syringe containing 0.1 ml acid citrate dextroset as anticoagulant) were removed from the ventro-lateral tail vein of the halothane anaestetised rat at t= prebleed, 0.5, 1, 2, 6 and 24 hrs. 3mls methanol was added to each blood sample, mixed and centrifuged at 3000 r.p.m. for 15 minutes (using Beckman GPKR centrifuge). 2.0ml of the methanol supematant was removed and evaporated dry. The pellet was redisolved in 200µl DMSO (dimethylsulphoxide). An aliquot of the solubilised pellet was assayed against fibroblast collagenase using ^14C collagen as substrate, as follows: 15µl fibroblast collagenase at suitable dilution. 100µl collagenase assay buffer* 10µl solubilised pellet 75µl ddH2O 100µl ^14C collagen † Acid citrate dextrose, pH4.5 (13.65g citric acid, 25g tri-sodium citrate & 20g d-glucose per litre of water) * (50mM Tris (pH 7.4), 5mM CaCl2, 0.05% Brij, 0.02% NaN3)
Samples were incubated overnight at 37°C and undigested substrate removed by centrifugation at 11,600 r.p.m. for 15 mins (using Heraeus Biofuge 15). […]
A calibration curve for the test compound of interest was run alongside the blood samples. The concentration of the test compound in the blood was then calculated from the calibration curve.

[3] = Twentyman 1992; cited from earlier work

C=CC[C@H](C(=O)NO)[C@@H](CC(C)C)C(=O)N[C@H](C(=O)NC)C(C)(C)C [Compound 1, 3R-(2,2-Dimethyl-1S-methylcarbamoyl-propylcarbamoyl)-5-methyl-2S-2-propenyl-hexanohydroxamic acid]
reducing the paw volume (swelling) ([1]; Compound 1 at doses at or below 10mg/kg, po, bid (data not shown)): ineffective
effect on arthritis ([1]; given alone, po, bid: Compound 1 (10mg/ml), Cyclosporin A (0.3mg/ml)): very little or no effect
blood concentration of Compound 1 [2]: equivalent

CNC(=O)[C@H](Cc1ccccc1)NC(=O)[C@H](CC(C)C)[C@H](CSc1cccs1)C(=O)NO [Compound 2, [4-(N-Hydroxyamino)-2R-isobutyl-3S-(thiophenylthiomethyl)succinyl]-L-phenylalanine-N-methylamide]
synergy with cyclosporin A ([1]; Compound 2 at 5mg/kg ip, bid, with cyclosporin A at 0.3mg/kg ip): act in synergy

C/C=C/C[C@@H](C)C(=O)[C@H]1C(=O)N[C@@H](C(C)C)C(=O)N(C)CC(=O)N(C)[C@@H](CC(C)C)C(=O)N[C@@H](C(C)C)C(=O)N(C)[C@@H](CC(C)C)C(=O)N[C@@H](C)C(=O)N[C@H](C)C(=O)N(C)[C@@H](CC(C)C)C(=O)N(C)[C@@H](CC(C)C)C(=O)N(C)[C@@H](C(C)C)C(=O)N1C [PSC-833]
potency relative to CyA [3]: approximately 10 fold
